Data from PMC12736008, “New Dimethylpyridine-3-Carboxamide Derivatives as MMP-13 Inhibitors with Anticancer Activity” (Molecules, 2025).

Experiments:
MMP-13 = target: T1, MMP-13 (Homo sapiens, UniProt P45452); assay: MMP-13 inhibitor screening assay kit (fluorometric); format: biochemical; settings: single-point screening; tested compounds 1.8 to 4.6 µM
T1 construct: purchased Abcam ab139451
Protocol: (§1) The inhibitory activity of the designed compounds against MMP-13 was evaluated using a commercial fluorometric MMP-13 inhibitor assay kit (Abcam, Cambridge, UK), following the manufacturer’s protocol. Solutions of the tested compounds were prepared at concentrations ranging from 1.8 to 4.6 µM. N-isobutyl-N-(4-methoxyphenylsulfonyl)glycyl hydroxamic acid (NNGH), a broad-spectrum inhibitor of matrix metalloproteinases, was used as positive control. […] In parallel, MMP-8 inhibition assays were also conducted using the same concentrations of compounds 3b, 3c, 3d, and 3g.
(§2) It should be emphasized that these assays were performed as single-point screening experiments, optimized for rapid qualitative assessment rather than full kinetic characterization. Consequently, the observed differences in activity between MMP-13 and MMP-8 are indicative trends supporting the selectivity predicted by computational studies, including docking, molecular dynamics simulations, and binding free energy calculations, rather than providing definitive quantitative evidence.
(§3) The inhibitory activity of the tested compounds was evaluated using the MMP-13 inhibitor screening assay kit (fluorometric) (Abcam, ab139451). The assay performed according to the manufacturer’s instructions. The designed compounds were tested at concentrations ranging from 1.8 to 4.6 µM, to determine their inhibitory activity. […]

MMP-8 = target: T2, MMP-8 (Homo sapiens, UniProt P22894); assay: MMP-8 inhibitory screening assay kit (fluorometric); format: biochemical; settings: single-point screening; same concentrations, 1.8 to 4.6 µM
T2 construct: purchased Abcam ab139453
Protocol: as §1, §2, §3

T2 sequence (P22894 101-467): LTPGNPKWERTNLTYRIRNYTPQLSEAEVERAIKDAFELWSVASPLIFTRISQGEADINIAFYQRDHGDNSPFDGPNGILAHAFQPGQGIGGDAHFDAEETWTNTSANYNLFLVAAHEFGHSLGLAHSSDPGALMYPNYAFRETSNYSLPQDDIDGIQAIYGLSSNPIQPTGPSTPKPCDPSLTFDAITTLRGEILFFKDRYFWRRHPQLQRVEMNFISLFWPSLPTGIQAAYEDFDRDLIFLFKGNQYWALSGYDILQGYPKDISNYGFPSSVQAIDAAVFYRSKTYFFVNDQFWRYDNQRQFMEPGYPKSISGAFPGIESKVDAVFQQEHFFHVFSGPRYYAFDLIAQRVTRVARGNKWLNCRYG

Cc1cc(C)c(C(=O)NCC(=O)NCc2ccccc2)c(S)n1 [Compound 3g, 4,6-dimethyl-N-[2-(benzylamino)-2-oxoethyl]-2-sulfanylpyridine-3-carboxamide]
MMP-13 activity inhibition (MMP-13): most pronounced inhibitory effect
MMP-8 activity inhibition (MMP-8): slight inhibitory activity
